Target: T1, TLR3 (Mus musculus, UniProt Q99MB1)
T1 construct: endogenous in cells; host or cells: RAW 264.7
T1 sequence (Q99MB1 26-905): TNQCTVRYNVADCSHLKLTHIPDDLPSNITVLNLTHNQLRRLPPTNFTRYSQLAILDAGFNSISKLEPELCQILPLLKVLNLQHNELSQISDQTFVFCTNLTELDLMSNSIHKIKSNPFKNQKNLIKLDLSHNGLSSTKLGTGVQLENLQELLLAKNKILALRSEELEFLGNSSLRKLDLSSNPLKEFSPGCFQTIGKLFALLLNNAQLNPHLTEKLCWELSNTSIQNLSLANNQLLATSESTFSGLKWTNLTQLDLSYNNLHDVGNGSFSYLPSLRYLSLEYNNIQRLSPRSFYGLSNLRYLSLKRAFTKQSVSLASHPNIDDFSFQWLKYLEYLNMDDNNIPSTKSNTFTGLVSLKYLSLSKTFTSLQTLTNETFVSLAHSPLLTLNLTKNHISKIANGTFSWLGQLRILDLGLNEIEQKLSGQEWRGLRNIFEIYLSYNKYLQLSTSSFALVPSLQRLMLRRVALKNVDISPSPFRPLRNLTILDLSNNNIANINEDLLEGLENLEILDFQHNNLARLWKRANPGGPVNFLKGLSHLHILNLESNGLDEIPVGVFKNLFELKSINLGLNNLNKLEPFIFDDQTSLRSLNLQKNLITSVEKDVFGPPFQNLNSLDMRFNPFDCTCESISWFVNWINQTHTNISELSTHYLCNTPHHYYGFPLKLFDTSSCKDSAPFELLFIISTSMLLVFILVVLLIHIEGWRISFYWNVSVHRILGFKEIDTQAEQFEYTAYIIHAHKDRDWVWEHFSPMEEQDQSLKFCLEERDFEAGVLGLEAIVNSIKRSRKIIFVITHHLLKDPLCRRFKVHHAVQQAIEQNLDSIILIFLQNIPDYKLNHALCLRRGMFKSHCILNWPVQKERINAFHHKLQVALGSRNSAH
Test: In vitro TLR3 inhibition assay: Poly IC-induced NO production in RAW 264.7 cells
Format: cell-based
Settings: for IC50: whole cell inhibitory activity
Text: The initial hits (Figure A) were first evaluated using the present inventors' previously established high-throughput cell assay of TLR3 activation. See, for example, ACS Med. Chem. Lett. 2010, 1, 194 and Bioorg. Med. Chem. Lett., 2010, 20, 5411. Poly IC (Polyriboinosinic:polyribocytidylic acid) has been reported to selectively activate TLR3 signaling, resulting in the activation of nitric oxide synthase and the production nitric oxide (NO) in RAW 264.7 macrophage cells. The NO level was monitored as an indicator of Poly IC-induced TLR3 activation to evaluate the drug's inhibitory activity.
RAW 264.7 (Mouse leukaemic monocyte macrophage cell line) cells were grown in RPMI 1640 medium, supplemented with 10% FBS, penicillin (100 U/mL) and streptomycin ([…]). RAW cells were then planted in 96-well plates at 100,000 cells per well and grown for 24 h in the media descried previously at 37° C. in a 5% CO2 humidified incubator. After 24 h, non-adherent cells and media were removed and replaced with fresh RPMI 1640 medium (only RPMI). The adherent macrophages were treated with high molecular weight polyinosine-polycytidylic acid (Poly IC) (10 μg/mL) (Invivogen), an agonist of TLR3, and then added different concentrates of potential inhibitor. Two rows were only treated with Poly IC as an control. Plates were then incubated for an additional 24 h. Following incubation 100 μL of media was removed and added to flat black 96-well microfluor plates (Thermo Scientific, MA, USA). To each well, 10 μL of 2,3-diaminonaphthalene (0.05 mg/mL in 0.62 M aqueous HCl solution) was added and incubated for 15 min in the dark. The reaction was quenched by addition of 5 μL of a 3 M aqueous NaOH solution and the plate was read on Beckman Coulter DTX880 reader (Beckman Coulter, Calif., USA) with excitation at 365 nm and emission at 450 nm. The nitrite (a stable metabolite of nitric oxide) concentration was determined from a nitrite standard curve. The inhibition rate (%) of NO release was determined using the following formula: Inhibition (%)=[Poly IC(OD450)−Compounds (OD450)]/[Poly IC(OD450)−Control (OD450)]×100. The IC50 values for both inhibition and cytotoxicity were determined graphically using software Origin v7.5.

[1] = Poly IC-induced NO, RAW 264.7, average ± SD, at least three independent tests
[2] = second part of Table 1 (R5/R6 series)

SMILES	IC50 [1] [µM]	further results
O=C(N[C@@H](Cc1ccccc1)C(=O)O)c1cc2ccccc2s1 [Compound 1b, (S)-2-(benzo[b]thiophene-2-carboxamido)-3-phenylpropanoic acid]	> 155	–
Cc1ccc2c(Cl)c(C(=O)N[C@H](Cc3ccccc3)C(=O)O)sc2c1 [Compound 2a, (R)-2-(3-chloro-6-methylbenzo[b]thiophene-2-carboxamido)-3-phenylpropanoic acid]	11.8 ± 1.3	–
Cc1ccc2c(Cl)c(C(=O)N[C@@H](Cc3ccccc3)C(=O)O)sc2c1 [Compound 2b, (S)-2-(3-chloro-6-methylbenzo[b]thiophene-2-carboxamido)-3-phenylpropanoic acid]	31.7 ± 0.7	–
O=C(N[C@H](Cc1ccccc1)C(=O)O)c1sc2cc(Cl)ccc2c1Cl [Compound 3a, (R)-2-(3,6-dichlorobenzo[b]thiophene-2-carboxamido)-3-phenylpropanoic acid]	5.6 ± 0.32	–
O=C(N[C@@H](Cc1ccccc1)C(=O)O)c1sc2cc(Cl)ccc2c1Cl [Compound 3b, (S)-2-(3,6-dichlorobenzo[b]thiophene-2-carboxamido)-3-phenylpropanoic acid]	11.8 ± 2.5	–
O=C(N[C@@H](Cc1ccccc1)C(=O)O)c1sc2cc(F)ccc2c1Cl [Compound 4b, (S)-2-(3-chloro-6-fluorobenzo[b]thiophene-2-carboxamido)-3-phenylpropanoic acid]	21.9 ± 0.7	–
O=C(N[C@H](Cc1ccccc1)C(=O)O)c1sc2cc(C(F)(F)F)ccc2c1Cl [Compound 5a, (R)-2-(3-chloro-6-(trifluoromethyl)benzo[b]thiophene-2-carboxamido)-3-phenylpropanoic acid]	6.28 ± 1.05	–
O=C(N[C@@H](Cc1ccccc1)C(=O)O)c1sc2cc(C(F)(F)F)ccc2c1Cl [Compound 5b, (S)-2-(3-chloro-6-(trifluoromethyl)benzo[b]thiophene-2-carboxamido)-3-phenylpropanoic acid]	19.8 ± 3.6	–
COc1ccc2c(Cl)c(C(=O)N[C@H](Cc3ccccc3)C(=O)O)sc2c1 [Compound 6a, (R)-2-(3-chloro-6-methoxybenzo[b]thiophene-2-carboxamido)-3-phenylpropanoic acid]	36.7 ± 3.9	decrease in potency (6a vs 4a): 10 fold
COc1ccc2c(Cl)c(C(=O)N[C@@H](Cc3ccccc3)C(=O)O)sc2c1 [Compound 6b, (S)-2-(3-chloro-6-methoxybenzo[b]thiophene-2-carboxamido)-3-phenylpropanoic acid]	> 100	–
O=C(N[C@H](Cc1ccc(O)cc1)C(=O)O)c1sc2cc(F)ccc2c1Cl [Compound 7a, (R)-2-(3-chloro-6-fluorobenzo[b]thiophene-2-carboxamido)-3-(4-hydroxyphenyl)propanoic acid]	56.4 ± 5.2	–
O=C(N[C@@H](Cc1ccc(O)cc1)C(=O)O)c1sc2cc(F)ccc2c1Cl [Compound 7b, (S)-2-(3-chloro-6-fluorobenzo[b]thiophene-2-carboxamido)-3-(4-hydroxyphenyl)propanoic acid]	84.7 ± 2.4	–
O=C(N[C@H](Cc1ccccc1)C(=O)O)c1sc2cc(F)c(F)cc2c1Cl [Compound 8a, (R)-2-(3-chloro-5,6-difluorobenzo[b]thiophene-2-carboxamido)-3-phenylpropanoic acid]	70.7 ± 2.1	–
O=C(N[C@@H](Cc1ccccc1)C(=O)O)c1sc2cc(F)c(F)cc2c1Cl [Compound 8b, (S)-2-(3-chloro-5,6-difluorobenzo[b]thiophene-2-carboxamido)-3-phenylpropanoic acid]	79.5 ± 3.4	–
O=C(N[C@H](Cc1ccc(O)cc1)C(=O)O)c1cc2ccccc2s1 [Compound 9a, (R)-2-(benzo[b]thiophene-2-carboxamido)-3-(4-hydroxyphenyl)propanoic acid]	> 100	–
O=C(N[C@@H](Cc1ccc(O)cc1)C(=O)O)c1cc2ccccc2s1 [Compound 9b]	> 100	–
O=C(N[C@H](Cc1ccccc1)C(=O)O)c1cc2cc(F)ccc2s1 [Compound 10a, (R)-2-(5-fluorobenzo[b]thiophene-2-carboxamido)-3-phenylpropanoic acid]	> 100	–
O=C(N[C@@H](Cc1ccccc1)C(=O)O)c1cc2cc(F)ccc2s1 [Compound 10b, (S)-2-(5-fluorobenzo[b]thiophene-2-carboxamido)-3-phenylpropanoic acid]	> 100	–
O=C(N[C@H](Cc1ccccc1)C(=O)O)c1sc2ccccc2c1Cl [Compound 11a, (R)-2-(3-chlorobenzo[b]thiophene-2-carboxamido)-3-phenylpropanoic acid]	> 100	–
O=C(N[C@@H](Cc1ccccc1)C(=O)O)c1sc2ccccc2c1Cl [Compound 11b, (S)-2-(3-chlorobenzo[b]thiophene-2-carboxamido)-3-phenylpropanoic acid]	> 100	–
O=C(N[C@H](Cc1ccccc1)C(=O)O)c1sc2ccc(F)cc2c1Cl [Compound 12a, (R)-2-(3-chloro-5-fluorobenzo[b]thiophene-2-carboxamido)-3-phenylpropanoic acid]	47.3 ± 4.1	–
O=C(O)[C@@H](Cc1ccccc1)NS(=O)(=O)c1ccccc1F [Compound 14a, (R)-2-(2-fluorophenylsulfonamido)-3-phenylpropanoic acid]	–	IC50 [2]: > 100 µM
O=C(O)[C@H](Cc1ccccc1)NS(=O)(=O)c1ccccc1F [Compound 14b, (S)-2-(2-fluorophenylsulfonamido)-3-phenylpropanoic acid]	–	IC50 [2]: > 100 µM
O=C(O)[C@@H](Cc1ccccc1)NS(=O)(=O)c1cccc(F)c1 [Compound 15a, (R)-2-(3-fluorophenylsulfonamido)-3-phenylpropanoic acid]	–	IC50 [2]: > 100 µM
O=C(O)[C@H](Cc1ccccc1)NS(=O)(=O)c1cccc(F)c1 [Compound 15b, (S)-2-(3-fluorophenylsulfonamido)-3-phenylpropanoic acid]	–	IC50 [2]: > 100 µM
O=C(O)[C@@H](Cc1ccccc1)NS(=O)(=O)c1ccc(F)cc1 [Compound 16a, (R)-2-(4-fluorophenylsulfonamido)-3-phenylpropanoic acid]	–	IC50 [2]: > 100 µM
O=C(O)[C@H](Cc1ccccc1)NS(=O)(=O)c1ccc(F)cc1 [Compound 16b, (S)-2-(4-fluorophenylsulfonamido)-3-phenylpropanoic acid]	–	IC50 [2]: > 100 µM
O=C(O)[C@@H](Cc1ccc(O)cc1)NS(=O)(=O)c1ccccc1F [Compound 17a, (R)-2-(2-fluorophenylsulfonamido)-3-(4-hydroxyphenyl)propanoic acid]	–	IC50 [2]: > 100 µM
O=C(O)[C@H](Cc1ccc(O)cc1)NS(=O)(=O)c1ccccc1F [Compound 17b, (S)-2-(2-fluorophenylsulfonamido)-3-(4-hyroxyphenyl)propanoic acid]	–	IC50 [2]: > 100 µM

Continued, in another order:

IC50 [1] [µM]	SMILES	further results
54.1 ± 5.7	O=C(N[C@@H](Cc1ccccc1)C(=O)O)c1sc2ccc(F)cc2c1Cl [Compound 12b, (S)-2-(3-chloro-5-fluorobenzo[b]thiophene-2-carboxamido)-3-phenylpropanoic acid]	–
> 100	O=C(N[C@H](Cc1ccccc1)C(=O)O)c1cc2ccc(F)cc2s1 [Compound 13a, (R)-2-(6-fluorobenzo[b]thiophene-2-carboxamido)-3-phenylpropanoic acid]	–
> 100	O=C(N[C@@H](Cc1ccccc1)C(=O)O)c1cc2ccc(F)cc2s1 [Compound 13b, (S)-2-(6-fluorobenzo[b]thiophene-2-carboxamido)-3-phenylpropanoic acid]	–
